Reference: US20240285680A1, “METHOD OF TREATING ALZHEIMER'S DISEASE” (Vector Vitale IP LLC, priority 2021, published 2024)
“And” between values parts separate entries of the source, which are not always exact repeats. Identical values can stand only once.

Tests used:
[1] = Body weight changes in rat models of Aβ1-40-induced AD; type: in vivo; conditions: Aβ1-40 AD rats, treated group; baseline before the operation
Text: Male Wistar rats (300-500 g) were used. The animals were maintained under standard conditions in the vivarium of the ESC “Institute of Biology and Medicine” of Taras Shevchenko National University of Kyiv. They were given ad libitum access to food and water.
Alzheimer's Disease was induced in old male rats (14 months old) by giving them intrahippocampal injections of aggregated Amyloid Beta (Aβ 1-40) Peptide (human) (Cayman Chemical Company) and Amyloid Beta (Aβ 25-35) Peptide (human) (Tocris Bioscience, Brostol). Aβ1-40 and Aβ 25-35 were dissolved in bidistilled water to the concentration of 15 μmol/L and incubated at 37° C. for 24 hours for aggregation. Aβ conglomerates were broken up by ultrasound and sterilized immediately prior to injection.
Rats were anesthetized using a mixture of ketamine (75 mg/kg, diluted in sterile water for injection, Sigma, USA) and 2% xylazine (100 μl/rat, Alfasan International B.V., Netherlands) administered intraperitoneally in a total volume of 1 ml. A rat was placed in a stereotaxic apparatus (SEZH-4) modified for rats. The animal was then scalped from the point of intersection of the sagittal suture with bregma (zero point): 2 mm distally, 2 mm laterally and 3.5 mm in depth and a trephine opening was made with an injection needle, directly into the hippocampus. […]

[2] = system: tyrosine hydroxylase (TH); assay: Immunohistochemical identification of tyrosine hydroxylase in hippocampus, Aβ1-40-induced AD rats; type: in vivo, rat; conditions: Aβ1-40 AD rats; TH-positive hippocampal cells; individual animals 661 E, F, G; listed as Zn
Protocol: (§1) Degeneration of the hippocampal neurons was assessed using immunohistochemical analysis for the expression level of tyrosine hydroxylase (TH). Immunohistochemical staining was performed using primary anti-TH antibodies at a 1:200 dilution (Millipore, AB152). Endogenous peroxidase activity was blocked with a blocking reagent (Dako, EnVision Flex, DM821). Nonspecific antibody binding was blocked using 4% dry milk dissolved in Tris-buffered saline (TBS) containing 0.2% Triton X-100.
(§2) The primary antibody was diluted in TBS containing 0.2% Triton X-100 and applied to tissue sections. The sections were then incubated overnight (+4° C.). Secondary antibodies (anti-rabbit biotinylated antibodies, 1:200) were incubated for 60 minutes. The immunoreaction was developed using diaminobenzidine (Dako, EnVision) applied for 5 minutes. The results of immunohistochemical staining were evaluated at the light-optical level using a Zeiss Primo Star microscope. The intensity of TH-positive staining was evaluated using a semiquantitative scoring system as described in the Quantitative Scoring Method ([http://www.ihcworld.com/ihc_scoring.htm]) taking into account the number of positive (stained) cells and the intensity of staining (Table 1). The results were presented as a quick score (Q) calculated by the following formula: Q=P×I, where P is the percentage of positive cells and I is the staining intensity.

[3] = system: rat models of Aβ1-40-induced Alzheimer's disease; assay: Barnes maze memory and cognitive flexibility tests, Aβ1-40-induced AD rats; type: in vivo; conditions: Aβ1-40 model; for Time spent near the entrance to the “escape box”, after surgery / Time spent near the entrance to the “escape box”, % of changes / Time spent near the entrance to the “escape box”, before surgery: cognitive flexibility; for Time spent near the entrance to the “escape box”, after surgery / Time spent to find the “escape box”, after surgery: after surgery and treatment; for Time spent near the entrance to the “escape box”, after surgery / Time spent near the entrance to the “escape box”, before surgery / Time spent to find the “escape box”, after surgery / Time spent to find the “escape box”, before surgery: M ± SD; for Time spent near the entrance to the “escape box”, % of changes / Time spent to find the “escape box”, % of changes: after vs before surgery; for Time spent near the entrance to the “escape box”, before surgery / Time spent to find the “escape box”, before surgery: baseline before surgery
Protocol: Kinga Gawel et al., Assessment of spatial learning and memory in the Barnes maze task in rodents-methodological consideration, Naunyn Schmiedebergs Arch Pharmacol. 2019; 392(1): 1-18. doi: 10.1007/s00210-018-1589-y.
The other holes remained open.
The rat was allowed to move freely around the table for 2-3 minutes.
Fifteen minutes after the habituation session, on the 2nd, 3rd and 4th days of the experiment, the task training was repeated 4 times every 15 minutes (min) (3 min on the table surface+1 min in the “escape box” with the light off).
The table surface was disinfected after each trial.
18 days after the operation, the animals had another 4-day training session (probe phase) with a changed location of the “escape box”.
The following time periods were measured in seconds: 1) the time the animal spent to find the entrance to the “escape box” (assessment of spatial learning and spatial memory associated with the hippocampal function); 2) the time the animal spent near the entrance (assessment of cognitive flexibility associated with the function of the frontal cortex of the brain)—the less time the animal spends near the closed entrance, the quicker it understands that it is necessary to look for escape elsewhere.

[4] = system: tyrosine hydroxylase (TH); assay: Immunohistochemical identification of tyrosine hydroxylase in hippocampus, Aβ25-35-induced AD rats; type: in vivo, rat; conditions: Aβ25-35 AD rats
Protocol: as §1, §2

CD86 = CD86 expression in circulating phagocytes, Aβ25-35 model; type: in vivo, rat; conditions: Aβ25-35 AD rats
Protocol: The phenotypic profile of phagocytes of various localization was characterized by the expression of markers of functional maturity and metabolic polarization (CD206 and CD86), which was determined by flow cytometry and the use of monoclonal antibodies of appropriate specificity marked with fluorescent dyes (Abcam, Becton Dickinson).

[5] = system: rat models of Aβ25-35-induced Alzheimer's disease; assay: Barnes maze memory and cognitive flexibility tests, Aβ25-35-induced AD rats; conditions: for Time spent near the entrance to the “escape box”, after surgery / Time spent near the entrance to the “escape box”, % of changes / Time spent near the entrance to the “escape box”, before surgery / Time spent to find the “escape box”, after surgery / Time spent to find the “escape box”, % of changes / Time spent to find the “escape box”, before surgery: Aβ25-35 model; for Time spent near the entrance to the “escape box”, after surgery / Time spent near the entrance to the “escape box”, % of changes / Time spent near the entrance to the “escape box”, before surgery: cognitive flexibility; for Time spent near the entrance to the “escape box”, after surgery / Time spent to find the “escape box”, after surgery: after surgery and treatment; for Time spent near the entrance to the “escape box”, after surgery / Time spent near the entrance to the “escape box”, before surgery / Time spent to find the “escape box”, after surgery / Time spent to find the “escape box”, before surgery: M ± SD; for Time spent near the entrance to the “escape box”, % of changes / Time spent to find the “escape box”, % of changes: after vs before surgery; for Time spent near the entrance to the “escape box”, before surgery / Time spent to find the “escape box”, before surgery: baseline before surgery
Text: An animal learns to remember the location of the target zone (“escape box”) using peripheral visual cues in the testing area as reference points.
Barnes maze used consisted of a circular table with 16 circular holes around its circumference. Peripheral visual cues, such as black marks (a triangle on one wall and two parallel strips on the opposite wall), were placed for better orientation of the animal. Under one of the holes an “escape box” containing standard filler for animals was fixed. Each animal was assigned its number of the hole to which the “escape box” was fixed. The other holes remained open. Before performing the probe phase (after the operation), the number of the hole was changed.
On the 1st day of the experiment, during the first training of rats, a habituation session was performed, which was not repeated during the probe phase. A rat was placed in the center of the circular table and kept under a non-transparent hood for 10 seconds. The light above the table was then turned on and the hood lifted. The rat was allowed to move freely around the table for 2-3 minutes.
Fifteen minutes after the habituation session, on the 2nd, 3rd and 4th days of the experiment, the task training was repeated 4 times every 15 minutes (min) (3 min on the table surface+1 min in the “escape box” with the light off). The time during which the animal managed to reach the “escape box” was recorded at each trial.
Short-term memory of the animals was tested on the 5th day, and long-term memory was tested on the 9th day (5th day after the last training). All the holes of the maze were closed, and the rat was allowed to freely explore the open arena for 90 seconds to find “its” corresponding hole on the table top (under which the “escape box” was previously located) based on previously acquired skills. The amount of time the animal spent searching for the correct hole, and the time it spent near the hole was recorded. The table surface was disinfected after each trial.
18 days after the operation, the animals had another 4-day training session (probe phase) with a changed location of the “escape box”. As in the case before the operation, short-term memory was tested on the 5th day, and long-term memory was tested on the 9th day (5th day after the last training session).

[6] = long-term memory, 5 days following training
[7] = short-term memory, 24 hours following training

^64Zn-aspartate
body weight before the operation [1]: 432.1 ± 29.7 g
Q = P × I [2]: 4 and 2 and 6
Time spent near the entrance to the “escape box”, after surgery ([3]; 24 hours following training): 22.57 ± 7.77 s
Time spent near the entrance to the “escape box”, % of changes ([3]; 24 hours following training): −31.6%
Time spent near the entrance to the “escape box”, before surgery ([3]; 24 hours following training): 33 ± 7.39 s
Time spent near the entrance to the “escape box”, after surgery ([3]; 5 days following training): 29 ± 6.14 s
Time spent near the entrance to the “escape box”, % of changes ([3]; 5 days following training): 23.03%
Time spent near the entrance to the “escape box”, before surgery ([3]; 5 days following training): 23.57 ± 6.61 s
Time spent to find the “escape box”, after surgery [3, 6]: 5 ± 1.54 s
Time spent to find the “escape box”, % of changes [3, 6]: −70.59%
Time spent to find the “escape box”, before surgery [3, 6]: 17 ± 6.74 s
Time spent to find the “escape box”, after surgery [3, 7]: 4.14 ± 0.74 s
Time spent to find the “escape box”, % of changes [3, 7]: −42.04%
Time spent to find the “escape box”, before surgery [3, 7]: 7.14 ± 1.49 s
Q = P × I ([4]; TH-positive hippocampal cells, individual animals 663 A, B, listed as Zn): 6 and 4
staining intensity of TH-positive cells ([4]; hippocampus): no effect
tyrosine hydroxylase expression, Q value (group mean) ([4]; hippocampus): 5.0±1.4
expression of CD86 by circulating phagocytes (CD86): elevated
fraction of CD86+ cells among circulating phagocytes (CD86): increase
tendency towards impairment of long-term memory ([5]; Aβ25-35 AD rats): not improved
Time spent near the entrance to the “escape box”, after surgery ([5]; 24 hours following training): 30.67 ± 7.32 s
Time spent near the entrance to the “escape box”, % of changes ([5]; 24 hours following training): 12.2%
Time spent near the entrance to the “escape box”, before surgery ([5]; 24 hours following training): 27.33 ± 4.06 s
Time spent near the entrance to the “escape box”, after surgery ([5]; 5 days following training): 18.17 ± 5.38 s
Time spent near the entrance to the “escape box”, % of changes ([5]; 5 days following training): −40.76%
Time spent near the entrance to the “escape box”, before surgery ([5]; 5 days following training): 30.67 ± 4.32 s
Time spent to find the “escape box”, after surgery [5, 6]: 21.83 ± 12.53 s
Time spent to find the “escape box”, % of changes [5, 6]: 48.86%
Time spent to find the “escape box”, before surgery [5, 6]: 14.67 ± 3.53 s
Time spent to find the “escape box”, after surgery [5, 7]: 8.33 ± 5.76 s
Time spent to find the “escape box”, % of changes [5, 7]: −37.5%
Time spent to find the “escape box”, before surgery [5, 7]: 13.33 ± 7.8 s
